# Like-named read-outs stand apart in the source and are kept apart here.
# What was measured:
# [1] = system: R. solani; test: microbe, parasite or virus in culture; type: cell-based; conditions: Rhizoctonia solani; for EC50: read-out: EC50 (μg/mL) R. solani; for inhibition at 50 µg/mL: read-out: The Inhibition Rate (%) R. solani
# [2] = system: F. graminearum; test: microbe, parasite or virus in culture; type: cell-based; conditions: Fusarium graminearum; for EC50: read-out: EC50 (μg/mL) F. graminearum; for inhibition at 50 µg/mL: read-out: The Inhibition Rate (%) F. graminearum
# [3] = system: E. turcicum; test: Mycelial growth inhibition test in vitro (E. turcicum); type: cell-based; conditions: Exserohilum turcicum; for EC50: read-out: EC50 (μg/mL) E. turcicum; for inhibition at 50 µg/mL: 50 μg/mL, mean ± SD of three replicates, read-out: The Inhibition Rate (%) E. turcicum
# [4] = system: C. capsica; test: Mycelial growth inhibition test in vitro (C. capsica); type: cell-based; conditions: Colletotrichum; for EC50: read-out: EC50 (μg/mL) C. capsica; for inhibition at 50 µg/mL: 50 μg/mL, mean ± SD of three replicates, read-out: The Inhibition Rate (%) C. capsica
# Protocol: The antifungal activity of the target compound was tested by the mycelial growth inhibition rate method. The compounds were detected at a concentration of 50 μg/mL, and carbendazim was used as the positive control. The antifungal activity was carried out according to literature reports. After drilling the mycelium (3 mm), it was inoculated into the PDA medium containing compounds, and the Petri dish was put into the incubator at 25 °C for 12-48 h; then, the colony diameter was measured with 50 index vernier caliper by the cross method, and the data were recorded. […] • A: The average diameter of the blank medium colony. • B: Diameter of mushroom cake (3 mm). • C: The average diameter of the colonies in the medium containing compound. […] The PDA medium containing different concentrations of the compound was prepared by the two-fold dilution method, the final concentration of the compound in the medium was adjusted to 0-100.00 μg/mL, and three parallel samples were set for each concentration. […] The toxicity regression equation of the tested compound was obtained, taking the logarithm of compound concentration (lgc) as the independent variable (x) and the probability value of inhibition rate as the dependent variable (y), and the EC50 value of each tested compound was calculated.
# [5] = system: C. capsica; test: Antifungal activity in vivo: protective effect on detached pepper infected by C. capsica; design: species or system Colletotrichum capsica
# Protocol: The protective effects of compounds 4q and 4f and carbendazim on pepper infected by […] studied. […] The peppers were washed with water and dried, and the surface was wiped with 75% ethanol for sterilization. The infected area was pricked with a diameter of 4 mm on the surface of the green pepper with a sterile inoculation needle. After spraying the antifungus compound solution on the surface and resting for 12 h, the activated cake (4 mm in diameter) was inoculated into the infected area. After culturing at 25 °C for 1 to 7 days, the plaque diameter was measured by the cross method, and the efficacy was calculated according to Formula (2).(2) Control efficacy%=A-B/A-C×100% • A: The average diameter of the blank medium colony. • B: The average diameter of the colonies in the medium containing compound. • C: Diameter of mushroom cake (3 mm/4 mm).
# [6] = MTT cytotoxicity evaluation on MCF-7 cells; type: cell-based; conditions: human, range 0~100 μM
# Protocol: (§1) Cells were incubated at 37 °C in an incubator with 5% CO2. Cell viability was determined using the MTT assay. Briefly, MCF-7 cell lines were seeded at 5000–8000 cells/well in 96-well plates. […] Following a continuous 24 h of incubation, the culture medium was replaced by 90 μL fresh culture medium, and 10 μL MTT solution was added.
# [7] = system: B. cinerea; test: Mycelial growth inhibition test in vitro (B. cinerea); type: cell-based; conditions: Botrytis cinerea; 50 μg/mL, mean ± SD of three replicates; read-out: The Inhibition Rate (%) B. cinerea
# Protocol: The antifungal activity of the target compound was tested by the mycelial growth inhibition rate method. The compounds were detected at a concentration of 50 μg/mL, and carbendazim was used as the positive control. The antifungal activity was carried out according to literature reports. After drilling the mycelium (3 mm), it was inoculated into the PDA medium containing compounds, and the Petri dish was put into the incubator at 25 °C for 12-48 h; then, the colony diameter was measured with 50 index vernier caliper by the cross method, and the data were recorded. […] • A: The average diameter of the blank medium colony. • B: Diameter of mushroom cake (3 mm). • C: The average diameter of the colonies in the medium containing compound.
# [8] = system: MCF-7 cell line; test: MTT cytotoxicity evaluation on MCF-7 cells; type: cell-based; conditions: 100 μM, 24 h
# Protocol: as §1
SMILES,EC50 [1] [µg/mL],EC50 [2] [µg/mL],EC50 [3] [µg/mL],"EC50 ([4]; mycelial growth, 0–100.00 μg/mL two-fold dilution) [µg/mL]","Control efficacy (%) ([5]; 500 μg/mL, 5 days)","Control efficacy (%) ([5]; 1000 μg/mL, 5 days)",IC50 at 24 h [6] [µM],inhibition at 50 µg/mL [1] [%],inhibition at 50 µg/mL [2] [%],inhibition at 50 µg/mL [3] [%],inhibition at 50 µg/mL [7] [%],EC50 [4] [µg/mL],inhibition at 50 µg/mL [4] [%],cell survival rate of MCF-7 cells [8],"Control efficacy (%) ([5]; 1000 μg/mL, 3 day)"
"COC(=O)Nc1nc2ccccc2[nH]1 [carbendazim, reference compound]",1.1,19.6,110,0.22,100,100,,,,,,,,,
"COc1ccc(-c2noc(-c3ccc(O)c(O)c3)n2)cc1OC [Compound 4q, 4-(3-(3,4-Dimethoxyphenyl)-1,2,4-oxadiazol-5-yl)benzene-1,2-diol]",38.9,149,229,,50.12,76.83,≥ 100,47.8 ± 8.13,43.5 ± 3.7,43.5 ± 0.99,32.8 ± 12.2,41.7,55.5 ± 1.34,,
"COc1ccc(-c2noc(-c3cc(O)cc(O)c3)n2)cc1OC [Compound 4p, 5-(3-(3,4-Dimethoxyphenyl)-1,2,4-oxadiazol-5-yl)benzene-1,3-diol]",,,,,,,,< 10,< 10,11.2 ± 1.91,< 10,,0,significant cell proliferation,
"Oc1ccc(-c2nc(-c3ccccc3)no2)cc1O [Compound 4f, 4-(3-Phenyl-1,2,4-oxadiazol-5-yl) benzene-1,2-diol]",12.7,30,29.1,,100,,,80.9 ± 2.4,100,85.7 ± 1.97,38.9 ± 5.35,8.81,86.8 ± 3.11,,100
